Tests used:
[1] = Analyte selectivity (reactive species); details: CoxFluor 10 μM, analytes up to 500 μM (50 equiv), 4 h
Experimental: Analyte Selectivity. Response of CoxFluor (10 μM) to a variety of reactive oxygen, nitrogen, carbonyl, metals, and sulfur species (1, 3, 5, or 50 equiv) were monitored using the plate reader assay. Total volume of the reaction mixture was maintained at 190 μL in 100 mM Tris-HCl buffer (pH 8.0) with a final DMSO concentration of 1.26% (v/v). Assays for CoxFluor or resorufin were initiated by the addition of the analytes and the reactions were incubated at room temperature for up to 4 h. Measurements were recorded at a range of time points, and the relative turn-on was determined relative to a buffer control containing 10 μM CoxFluor or resorufin. Superoxide anion was added as a solution of potassium superoxide in DMSO. Nitroxyl was generated in situ from a solution of Angeli's salt in degassed 10 mM potassium hydroxide solution. Angeli's salt was prepared according to previously reported literature (Methods Enzymol. 1999, 301, 279). NO was generated in situ from a solution of MAHMA-NONOate in degassed 10 mM potassium hydroxide. Peroxynitrite was prepared according to previously reported literature (Anal. Biochem. 2006, 354, 165). All metals were prepared from their chloride salt. Formaldehyde solutions were prepared by depolymerizing saturated aqueous solutions at 100° C. before use. […]

[2] = Photophysical characterization; assay type: physicochemical
Experimental: Photophysical Characterization. Extinction coefficients and fluorescence quantum yields were acquired (n=3) and reported as the average with a relative standard deviation less than 15%. Extinction coefficients were acquired by titrating compound in 100 mM Tris-HCl (pH 8.0) within the linear range. Fluorescence quantum yields were obtained using the modified method for relative fluorescence quantum yield. Dye was titrated into the solution and the absorbance and emission were monitored (excitation at 540 nm). The absorbance was maintained below 0.1 to limit secondary absorbance events. Total emission spectra were integrated, and the relative quantum yield was calculated relative to Rhodamine B (ϕ=0.70, ethanol). The refractive index of 100 mM Tris-HCl (pH 8.0) was measured to be 1.33514.

HEK 293T cells = test: Cell viability (trypan blue exclusion and MTT) in HEK 293T cells; assay type: cell-based; details: 6 h incubation
Experimental: Trypan Blue Exclusion Cytotoxicity Assay. 6-well plates were seeded with 300,000 cells per well (2 mL of 150,000 cells/mL) and incubated at 37° C. with 5% CO2 for 48 to 72 h (˜60-80% confluent). Media was removed and replaced with either 5, 10, or 25 μM CoxFluor in fresh serum-free DMEM media (1.25% DMSO v/v final concentration). […] The trypsin was quenched with the addition of 1.8 mL DMEM media containing 10% FBS and the cells were mixed thoroughly before diluting 1:1 with trypan blue (0.4% in PBS w/v). Percent viability was measured using a Countess® II FL Automated Cell Counter (Thermo Fisher Scientific), where the parameters were optimized to identify live and dead cells. Viability was calculated by the relative to the vehicle control.
MTT Cytotoxicity Assay. […] The media was removed at various time points (3 or 6 h) and replaced with 200 μL 20:1 mixture of FBS-free DMEM and (3-(4,5-dimethylthiazol-2-yl)-2,5-diphenyl-tetrazolium bromide (MTT, 5 mg/mL stock in PBS). The cells were incubated for 4 h under the same conditions and then the medium was removed and replaced with DMSO (200 μL/well). The absorbance of each well was recorded after a 1:5 dilution in DMSO at 555 nm on a microplate reader. Viability was calculated by the absorbance relative to the vehicle control.

[3] = test system: endogenous COX-2 activity in RAW 264.7 macrophage cells; test: Confocal live-cell imaging of LPS-activated RAW 264.7 macrophages; assay type: cell-based, mouse; details: CoxFluor 10 μM, 4 h, LPS 1 μg/mL, BSO 200 μM
Experimental: Confocal Fluorescence Live-Cell Imaging of Lipopolysaccharide-activated RAW 264.7 Macrophages. The surface exposed substrate of 4-well chambered cover glasses was coated with R&D Systems™ Cultrex Poly-L-Lysine (Fisher Scientific) using the manufacturer's protocol. Plates were seeded with 180,000 cells per well (500 μL of 360,000 cells/mL in DMEM media supplemented with 10% FBS) and were allowed to incubate for 38 h at 37° C. with 5% CO2 (70-80% confluent). […] The cells were incubated under these conditions for 17 h at 37° C. with 5% CO2. […] Finally, the cells were stained under identical conditions supplemented with 10 μM CoxFluor (500 μL final volume containing 1.5% DMSO final concentration). After incubation at 37° C. with 5% CO2 for 4 h, each well was imaged using a Zeiss LSM 700 confocal microscope (n=3 technical replicates; n=4 biological replicates). Images were quantified over the entire imaging window, without any processing, using ImageJ (v. 1.51, NIH). All images were processed using identical parameters and false colored (LUT: jet.lut) in ImageJ.

CCCCC/C=C\C/C=C\C/C=C\C/C=C\CCCC(=O)N1c2ccc(O)cc2Oc2cc(O)ccc21 [CoxFluor]
activation by reactive oxygen/nitrogen species and other oxidants and reductants [1]: no undesirable activation | extinction coefficient ε at 572 nm ([2]; 100 mM Tris-HCl pH 8.0): 820 M⁻¹ cm⁻¹ | fluorescence quantum yield ΦF ([2]; 100 mM Tris-HCl pH 8.0, relative to Rhodamine B): 0.29 | cell viability (HEK 293T cells): suitable viability | fluorescent enhancement for LPS-stimulated cells relative to the control [3]: 1.2 fold

From patent US12053533B2, “Fluorescent probe for cyclooxygenase-2” (The Board of Trustees of the University of Illinois, priority 2020, dated 2024)
